Source: patent publication US9382254B2, “Compounds and pharmaceutical compositions thereof for the treatment of cystic fibrosis” (Galapagos NV, priority 2013, dated 2016)

Tests used:
Assay type in all cases: cell-based
CFTR-S549N = biological target: T1, CFTR-S549N (Homo sapiens, UniProt P13569, S549N); assay: YFP-halide influx assay for the CFTR-S549N
T1 construct: expressed in transfected cells
Method in brief: (§1)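 HEK293 cells reverse-transfected with the CFTR mutant plus halide-sensitive YFP (H148Q/I152L/F47L), expressed 24 h at 37 °C. Channel activity measured as I⁻-induced fluorescence quenching over 7 s after injection, expressed as 1-F/F0; EC50 from 1-F/F0 versus compound concentration.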

CFTR ΔF508 mutant [1] = biological target: T2, CFTR ΔF508 mutant (Homo sapiens, UniProt P13569, DEL508-508); assay: YFP-halide influx assay for the CFTR-ΔF508 mutation, gluconate buffer; conditions: CFBE41o- cells, forskolin 10.67 μM
T2 construct: expressed in transfected cells; host or cells: CFBE41o- (adenoviral transduction)
Method in brief: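 CFBE41o- cells adenovirally transduced with CFTR ΔF508 and YFP H148Q/I152L, then held 24 h at 27 °C or treated with CFTR modulator 24 h at 37 °C. I− quenching recorded for 7 s after injection; activity as 1-F/F0, EC50 from concentration plot.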

CFTR-R117H = biological target: T3, CFTR-R117H (Homo sapiens, UniProt P13569, R117H); assay: YFP-halide influx assay for the CFTR-R117H
T3 construct: expressed in transfected cells
Method in brief: as §1

CFTR-G178R = biological target: T4, CFTR-G178R (Homo sapiens, UniProt P13569, G178R); assay: YFP-halide influx assay for the CFTR-G178R
T4 construct: expressed in transfected cells
Method in brief: as §1

CFTR ΔF508 mutant [2] = biological target: T2, CFTR ΔF508 mutant; assay: YFP-halide influx assay for the CFTR-ΔF508 mutation (384 well, FDSS/μCell); conditions: CFBE41o- cells, CFTR-ΔF508, 1×D-PBS, fluorescence after 36 seconds
Method in brief: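 Potentiator read-out as 1−F/F0, F taken 36 s after iodide addition, EC50 fitted against compound concentration. Cells: CFBE41o- expressing ΔF508 CFTR plus halide-sensitive YFP via adenovirus, rescued by 27 °C for 24 h or 24 h modulator at 37 °C.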

CFTR-G1349D = biological target: T5, CFTR-G1349D (Homo sapiens, UniProt P13569, G1349D); assay: YFP-halide influx assay for the CFTR-G1349D
T5 construct: expressed in transfected cells
Method in brief: as §1

CFTR ΔF508 mutant [3] = biological target: T2, CFTR ΔF508 mutant; assay: YFP-halide influx assay for the CFTR-ΔF508 mutation, PBS buffer (96 well); conditions: CFBE41o- cells, forskolin 10.67 μM
Method in brief: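 CFBE41o- cells were adenovirally transduced with CFTR ΔF508 and YFP H148Q/I152L, then incubated 24 h at 27 °C or with a CFTR modulator at 37 °C. I⁻-induced fluorescence quenching was recorded over 7 s after injection; response expressed as 1−F/F0, with EC50 from concentration plots.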

CFTR G551D mutant = biological target: T6, CFTR G551D mutant (Homo sapiens, UniProt P13569, G551D); assay: YFP-halide influx assay for the CFTR-G551D mutation; conditions: HEK293 cells, forskolin 10.67 μM
T6 construct: expressed in transfected cells; host or cells: HEK293 (reverse transfection with plasmid)
Method in brief: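 HEK293 cells reverse-transfected with CFTR G551D and YFP H148Q/I152L/F47L halide sensor, expressed 24 h at 37 °C. Iodide-induced fluorescence quench recorded 7 s after I− injection; response = 1−F/F0, with EC50 from plot against compound concentration.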

T4 sequence (P13569 whole entry G178R): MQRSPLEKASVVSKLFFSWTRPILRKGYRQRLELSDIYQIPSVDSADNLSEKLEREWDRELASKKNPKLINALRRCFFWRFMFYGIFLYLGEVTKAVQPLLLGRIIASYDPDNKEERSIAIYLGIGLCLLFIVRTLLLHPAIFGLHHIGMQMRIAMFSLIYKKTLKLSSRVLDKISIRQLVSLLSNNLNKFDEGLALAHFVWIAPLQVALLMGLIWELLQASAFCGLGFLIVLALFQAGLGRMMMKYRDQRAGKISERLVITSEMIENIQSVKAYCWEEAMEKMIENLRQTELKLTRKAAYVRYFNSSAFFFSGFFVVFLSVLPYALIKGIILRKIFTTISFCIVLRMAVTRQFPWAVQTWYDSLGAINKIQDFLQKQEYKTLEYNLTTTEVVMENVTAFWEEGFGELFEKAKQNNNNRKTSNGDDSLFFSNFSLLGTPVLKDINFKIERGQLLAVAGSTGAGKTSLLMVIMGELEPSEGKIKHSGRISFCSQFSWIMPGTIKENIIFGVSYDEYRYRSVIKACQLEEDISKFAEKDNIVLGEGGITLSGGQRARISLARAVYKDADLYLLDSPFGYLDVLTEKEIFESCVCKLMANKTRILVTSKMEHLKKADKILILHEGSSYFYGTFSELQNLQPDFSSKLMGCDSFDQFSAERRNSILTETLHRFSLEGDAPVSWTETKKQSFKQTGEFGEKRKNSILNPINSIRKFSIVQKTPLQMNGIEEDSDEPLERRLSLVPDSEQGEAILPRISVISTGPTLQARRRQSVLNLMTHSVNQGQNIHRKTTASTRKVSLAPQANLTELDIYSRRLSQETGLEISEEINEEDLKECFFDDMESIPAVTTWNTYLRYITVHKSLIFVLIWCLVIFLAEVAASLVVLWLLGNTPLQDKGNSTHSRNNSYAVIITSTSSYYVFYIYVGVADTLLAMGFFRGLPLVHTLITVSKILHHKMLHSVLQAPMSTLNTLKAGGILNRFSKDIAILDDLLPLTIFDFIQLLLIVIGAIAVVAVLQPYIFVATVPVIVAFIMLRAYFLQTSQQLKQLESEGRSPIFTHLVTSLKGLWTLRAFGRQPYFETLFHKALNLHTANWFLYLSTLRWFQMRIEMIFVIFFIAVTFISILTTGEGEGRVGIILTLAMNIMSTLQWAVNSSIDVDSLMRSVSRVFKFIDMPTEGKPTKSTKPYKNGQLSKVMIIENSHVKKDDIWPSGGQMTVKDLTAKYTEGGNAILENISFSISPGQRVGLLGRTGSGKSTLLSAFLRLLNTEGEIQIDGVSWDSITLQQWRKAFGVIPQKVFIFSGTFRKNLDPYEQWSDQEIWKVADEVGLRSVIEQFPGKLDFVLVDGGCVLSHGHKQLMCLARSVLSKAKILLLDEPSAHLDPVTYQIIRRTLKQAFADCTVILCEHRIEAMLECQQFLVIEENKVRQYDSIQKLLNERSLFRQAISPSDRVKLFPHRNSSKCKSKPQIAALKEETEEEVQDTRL
T1 sequence (P13569 whole entry S549N): as the sequence (P13569 whole entry G178R) above, with R178G, S549N counted along it
T6 sequence (P13569 whole entry G551D): as the sequence (P13569 whole entry G178R) above, with R178G, G551D counted along it
T3 sequence (P13569 whole entry R117H): as the sequence (P13569 whole entry G178R) above, with R117H, R178G counted along it
T2 sequence (P13569 with tags, fused parts or gaps DEL508-508): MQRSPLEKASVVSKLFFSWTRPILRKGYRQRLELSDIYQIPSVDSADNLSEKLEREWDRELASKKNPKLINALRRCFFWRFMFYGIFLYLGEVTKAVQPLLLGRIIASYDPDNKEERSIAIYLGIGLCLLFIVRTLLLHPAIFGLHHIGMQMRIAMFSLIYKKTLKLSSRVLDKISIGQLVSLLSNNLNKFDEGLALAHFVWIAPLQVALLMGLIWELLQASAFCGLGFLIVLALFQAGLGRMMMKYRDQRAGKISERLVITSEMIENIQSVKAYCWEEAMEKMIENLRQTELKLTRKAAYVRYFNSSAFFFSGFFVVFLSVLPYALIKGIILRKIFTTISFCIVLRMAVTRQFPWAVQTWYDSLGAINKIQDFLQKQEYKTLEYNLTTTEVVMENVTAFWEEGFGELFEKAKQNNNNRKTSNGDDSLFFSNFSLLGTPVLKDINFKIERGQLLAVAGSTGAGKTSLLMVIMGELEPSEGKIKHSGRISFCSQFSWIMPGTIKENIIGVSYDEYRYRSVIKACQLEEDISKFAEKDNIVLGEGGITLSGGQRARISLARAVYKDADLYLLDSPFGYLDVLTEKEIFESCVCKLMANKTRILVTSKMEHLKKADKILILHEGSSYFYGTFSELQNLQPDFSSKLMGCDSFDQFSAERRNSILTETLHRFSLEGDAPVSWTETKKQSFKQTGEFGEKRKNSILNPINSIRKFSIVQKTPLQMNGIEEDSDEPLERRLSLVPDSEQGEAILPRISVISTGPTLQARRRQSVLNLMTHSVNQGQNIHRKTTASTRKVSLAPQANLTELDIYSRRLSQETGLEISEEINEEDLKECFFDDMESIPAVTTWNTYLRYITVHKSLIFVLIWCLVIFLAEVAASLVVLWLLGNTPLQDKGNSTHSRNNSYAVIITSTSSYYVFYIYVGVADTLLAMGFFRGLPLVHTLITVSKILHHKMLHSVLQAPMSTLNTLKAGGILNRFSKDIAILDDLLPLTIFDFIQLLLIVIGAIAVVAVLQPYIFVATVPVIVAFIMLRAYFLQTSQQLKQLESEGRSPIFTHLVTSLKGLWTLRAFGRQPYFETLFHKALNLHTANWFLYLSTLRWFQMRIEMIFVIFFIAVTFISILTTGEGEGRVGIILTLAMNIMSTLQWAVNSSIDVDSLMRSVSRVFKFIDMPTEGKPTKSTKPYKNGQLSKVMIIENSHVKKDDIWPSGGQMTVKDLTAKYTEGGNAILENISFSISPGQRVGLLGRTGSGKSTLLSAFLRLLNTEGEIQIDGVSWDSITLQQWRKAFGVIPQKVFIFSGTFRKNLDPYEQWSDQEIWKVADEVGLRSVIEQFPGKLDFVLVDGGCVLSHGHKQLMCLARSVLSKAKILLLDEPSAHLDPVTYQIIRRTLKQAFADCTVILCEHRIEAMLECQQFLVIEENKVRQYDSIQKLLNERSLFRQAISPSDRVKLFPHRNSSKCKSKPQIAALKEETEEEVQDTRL
T5 sequence (P13569 whole entry G1349D): as the sequence (P13569 whole entry G178R) above, with R178G, G1349D counted along it

EC50 (CFTR-S549N) [nM]	EC50 (CFTR ΔF508 mutant [1]) [nM]	EC50 (CFTR-R117H) [nM]	EC50 (CFTR-G178R) [nM]	EC50 (CFTR ΔF508 mutant [2]) [nM]	EC50 (CFTR-G1349D) [nM]	EC50 (CFTR ΔF508 mutant [3]) [nM]	EC50 (CFTR G551D mutant) [nM]	SMILES
162	25.1	168	44.7	15.7	41.6	16.5	232	CN(Cc1ccccc1)S(=O)(=O)c1cc(C(N)=O)c(NC(=O)c2ccn[nH]2)s1 [Compound 73, N-(5-(N-benzyl-N-methylsulfamoyl)-3-carbamoylthiophen-2-yl)-1H-pyrazole-3-carboxamide]
353	42.8	222	71.3	12.1	152	30.8	339	NC(=O)c1cc(S(=O)(=O)c2ccccc2)sc1NC(=O)c1cc[nH]n1 [Compound 83, N-(3-carbamoyl-5-(phenylsulfonyl)thiophen-2-yl)-1H-pyrazole-3-carboxamide]
60.9		40	23.9	7.5	37.5	8.1	178	CC(C)(O)C(=O)Nc1sc(S(=O)(=O)c2ccccc2OC(F)(F)F)cc1C(N)=O [Compound 271, 2-(2-hydroxy-2-methylpropanamido)-5-(2-(trifluoromethoxy)phenylsulfonyl) thiophene-3-carboxamide]
1150		160	165	26.5	304	46.2	857	CC(C)(O)C(=O)Nc1sc(S(=O)(=O)c2ccc(F)cc2Cl)cc1C(N)=O [Compound 286, 5-(2-chloro-4-fluorophenylsulfonyl)-2-(2-hydroxy-2-methylpropanamido) thiophene-3-carboxamide]
871		166	207	27.6	258	34.3	880	CC(C)(O)C(=O)Nc1sc(S(=O)(=O)c2ccccc2Cl)cc1C(N)=O [Compound 290, 5-(2-chlorophenylsulfonyl)-2-(2-hydroxy-2-methylpropanamido) thiophene-3-carboxamide]
164		97.2	104	5.5	69.5	6.2	207	CC(C)(O)C(=O)Nc1sc(S(=O)(=O)c2c(Cl)cccc2Cl)cc1C(N)=O [Compound 298, 5-(2,6-Dichloro-benzenesulfonyl)-2-(2-hydroxy-2-methyl-propionylamino)-thiophene-3-carboxylic acid amide]
